Reference: patent publication US10106853B2, “CUL4B as predictive biomarker for cancer treatment” (CORNELL UNIVERSITY, priority 2012, dated 2018)

Molecular target: T1, Top1 (Homo sapiens, UniProt P11387)
T1 construct: CPT-induced TOP1 degradation in breast cancer cell lines; host or cells: human breast cancer cell lines BT474, BT20, MCF-7, MDA-MB-231, T47D, Sk-Br-3 (MCF-10A as control)
T1 sequence (P11387 1-765): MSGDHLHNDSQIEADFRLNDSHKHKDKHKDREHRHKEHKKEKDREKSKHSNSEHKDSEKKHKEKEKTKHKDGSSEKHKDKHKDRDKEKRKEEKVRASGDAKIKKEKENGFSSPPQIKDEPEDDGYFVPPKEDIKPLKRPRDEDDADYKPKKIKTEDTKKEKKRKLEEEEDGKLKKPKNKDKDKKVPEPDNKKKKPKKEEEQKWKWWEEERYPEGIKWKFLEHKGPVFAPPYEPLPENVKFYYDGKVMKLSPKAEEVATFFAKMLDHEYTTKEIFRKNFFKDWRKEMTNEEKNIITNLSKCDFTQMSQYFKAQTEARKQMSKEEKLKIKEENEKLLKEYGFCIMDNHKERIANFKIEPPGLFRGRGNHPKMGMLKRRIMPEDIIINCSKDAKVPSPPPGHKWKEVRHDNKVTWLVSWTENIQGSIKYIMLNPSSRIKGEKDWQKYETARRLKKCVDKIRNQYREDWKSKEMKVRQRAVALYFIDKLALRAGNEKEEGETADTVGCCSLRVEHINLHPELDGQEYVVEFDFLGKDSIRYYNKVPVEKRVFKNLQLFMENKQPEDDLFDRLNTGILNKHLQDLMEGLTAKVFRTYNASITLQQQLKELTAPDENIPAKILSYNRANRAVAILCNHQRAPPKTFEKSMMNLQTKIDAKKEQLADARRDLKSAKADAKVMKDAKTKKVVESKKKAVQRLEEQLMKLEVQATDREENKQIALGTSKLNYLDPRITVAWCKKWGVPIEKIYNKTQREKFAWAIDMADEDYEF
Assay: CPT-induced TOP1 down regulation assay (immunoblotting)
Assay type: cell-based
Method: FIG. 1. CPT-induced TOP1 degradation in breast cancer cell lines. A) Expression of endogenous CUL4A and 4B in breast cancer cell lines. Total cell lysates were prepared from the indicated breast cancer cell lines and subjected to SDS PAGE and immunoblotting with antibodies against CUL4A, 4B and α-tubulin. The non-cancerous MCF-10A cell line was used as a control for comparison. B) CPT-induced TOP1 degradation in breast cancer cell lines. Cells were treated with 12.5 μM CPT or 1% DMSO for 4 hours, replenished with CPT-free fresh medium and incubated at 37° C. for 30 minutes to reverse the formation of TOP1 cleavable complex. Cells were then lysed and immunoblotted with the TOP1 and α-tubulin antibodies.
FIG. 2. CUL4B interacted with Top1 and induced Top1 degradation in the presence of CPT. A) Knockdown of CUL4B impaired CPT-induced Top1 degradation. BT474 cells were infected with lentiviral shCUL4B, shCUL4A or control non-targeting shRNA, and selected for stable CUL4B^k/d or CUL4A^k/d cells upon treatment with puromycin. Following treatment with CPT (50 μM) for 1 hour, cells were replenished with CPT-free fresh medium and incubated at 37° C. for 30 minutes. Top1 degradation was assessed by immunoblotting with an anti-Top1 antibody. Levels of α-tubulin were measured as a loading control. B) Association of CUL4B with Top1 following CPT treatment. BT474 cells were treated with proteosome inhibitor MG132 (15 μM) for 3 hours, and were subjected to crosslinking with 0.2 mM Dithiobis[succinimidyl propionate](DSP) for the last 30 min at room temperature. Cell lysates were prepared, and immunoprecipitated with the anti-Top1 or anti-CUL4B antibodies, and then immunoblotted using antibodies against CUL4B or Top1, respectively. IgG immunoprecipitates served as the negative control. C) Knockdown of CUL4B using a second shCUL4B-2 impaired CPT-induced Top1 degradation. BT474 cells were infected with lentiviral shCUL4B-2, shCUL4A-2 or control non-targeting shRNA and selected for stable CUL4B^k/d or CUL4A^k/d cells upon treatment with puromycin. Following treatment with CPT (50 μM) for 1.5 hr, cells were replenished with CPT-free fresh medium and incubated at 37° C. for 30 min. Top1 degradation was assessed by immunoblotting with the anti-Top1 antibody. Levels of α-tubulin were measured as a loading control. D) CUL4B inactivation sensitized BT474 cells to cytotoxic killing by camptothecin. BT474, BT474-CUL4A^k/d or BT474-CUL4B^k/d cells were synchronized with 1 μM nocodazole for 13 hours released in fresh medium, treated with the indicated concentrations of CPT for three days, and subjected to the XTT assay to measure the cytotoxic responses to CPT. […] The bars indicate the S.E. of six independent experiments. Statistical significance in cellular response to CPT between control BT474 cells and CUL4A^k/d or CUL4B^k/d cells were assessed by a two-tailed unpaired student t-test (***: p<0.001). The same results were obtained with a second lentiviral shRNA for CUL4A and CUL4B, as well as in T47D breast cancer cells. E, F) Knockdown of CUL4B increased the sensitivity of T47D cells to camptothecin. […] Statistical significance in cellular response to camptothecin between control cells and CUL4A^k/d or CUL4B^k/d BT474 cells are assessed by student's t-test.
CPT-induced Top1 degradation was monitored by immunoblotting of the alkaline lysates. […]

Molecule | CPT-induced Top1 degradation compared to control (shCtrl) (CUL4A knockdown BT474 cells, CPT 50 μM, 1 hour) | CPT-induced Top1 degradation (CUL4B-silenced (CUL4B k/d) BT474 cells, CPT 50 μM, 1 hour) | Top1 degradation following treatment with CPT (breast cancer cells exhibiting elevated levels of CUL4B expression, 12.5 μM CPT, 4 hours) | Effect of shRNA knockdown on CPT-induced Top1 degradation (BT474 cells, lentiviral shRNA, CPT 50 μM, 1 to 1.5 hr)
CC[C@@]1(O)C(=O)OCc2c1cc1n(c2=O)Cc2cc3ccccc3nc2-1 [CPT, (S)-4-ethyl-4-hydroxy-1H-pyrano[3′,4′:6,7]indolizino[1,2-b]quinoline-3,14-(4H, 12H)-dione] | no effect | abolished | eliminated or markedly destroyed Top1 | 
shCUL4B: lentiviral shRNA CUL4B sequence purchased from Sigma Aldrich, reduces CUL4B expression (CCGGGCAGAATTTAAAGAGGGTAAACTCGAGTTTACCCTCTTTAAATTCTGCTTTTT) |  |  |  | impaired
